Measured values reported in patent US7605156B2, “Methods for the use of inhibitors of cytosolic phospholipase A2” (Wyeth, priority 2001, dated 2009).

Molecular target: T1, cPLA2 (Homo sapiens, UniProt P47712)
T1 sequence (P47712 1-749): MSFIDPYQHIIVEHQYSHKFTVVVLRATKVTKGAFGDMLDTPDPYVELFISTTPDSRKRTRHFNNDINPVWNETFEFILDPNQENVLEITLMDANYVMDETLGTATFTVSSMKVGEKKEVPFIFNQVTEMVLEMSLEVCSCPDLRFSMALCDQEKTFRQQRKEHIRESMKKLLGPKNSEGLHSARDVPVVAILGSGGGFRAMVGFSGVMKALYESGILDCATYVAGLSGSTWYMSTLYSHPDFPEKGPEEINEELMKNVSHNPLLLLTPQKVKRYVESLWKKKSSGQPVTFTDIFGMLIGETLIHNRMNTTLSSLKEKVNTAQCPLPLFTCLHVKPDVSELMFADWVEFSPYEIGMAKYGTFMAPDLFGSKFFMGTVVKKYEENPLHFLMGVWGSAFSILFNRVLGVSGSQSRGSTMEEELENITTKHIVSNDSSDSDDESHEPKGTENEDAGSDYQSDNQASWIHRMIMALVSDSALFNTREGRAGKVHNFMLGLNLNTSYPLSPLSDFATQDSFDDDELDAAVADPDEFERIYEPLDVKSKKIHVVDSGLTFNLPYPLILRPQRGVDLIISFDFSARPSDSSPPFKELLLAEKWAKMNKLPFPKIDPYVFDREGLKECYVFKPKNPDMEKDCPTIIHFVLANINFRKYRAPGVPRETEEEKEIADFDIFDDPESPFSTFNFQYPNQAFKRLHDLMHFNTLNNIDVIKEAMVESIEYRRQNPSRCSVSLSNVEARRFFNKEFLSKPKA
Experiment: Coumarine assay (hydrolysis of 7-hydroxycoumarinyl 6-heptenoate)
Format: biochemical
Settings: 60 μM 7-hydroxycoumarinyl 6-heptenoate, pH 7.5; read-out: Coumarin IC50

Compound | IC50
O=C(O)c1ccc(OCCc2c(CCNS(=O)(=O)c3cccc4nonc34)n(C(c3ccccc3)c3ccccc3)c3ccc(Cl)cc23)cc1 [Example 182, 4-(2-{1-Benzhydryl-2-[2-(benzo[1,2,5]oxadiazole-4-sulfonylamino)-ethyl]-5-chloro-1H-indol-3-yl}-ethoxy)benzoic acid] | 600 nM
O=C(O)c1ccc(OCCc2c(CCNS(=O)(=O)c3ccc(N4CCOCC4)nc3)n(C(c3ccccc3)c3ccccc3)c3ccc(Cl)cc23)cc1 [Example 179, 4-{2-[1-benzhydryl-5-chloro-2-(2-{[(6-morpholin-4-ylpyridin-3-yl)sulfonyl]amino}ethyl)-1H-indol-3-yl]ethoxy}benzoic acid] | 900 nM
O=C(O)c1ccc(OCCc2c(CCNS(=O)(=O)Cc3cccc(C(F)(F)F)c3)n(C(c3ccccc3)c3ccccc3)c3ccc(Cl)cc23)cc1 [Example 47, 4-(2-{1-benzhydryl-5-chloro-2-[2-({[3-(trifluoromethyl)benzyl]sulfonyl}amino)ethyl]-1H-indol-3-yl}ethoxy)benzoic acid] | 580 nM
Cc1nc(-c2ccc(S(=O)(=O)NCCc3c(CCCc4ccc(C(=O)O)cc4)c4cc(Cl)ccc4n3C(c3ccccc3)c3ccccc3)s2)cs1 [Example 176, 4-(3-{1-benzhydryl-5-chloro-2-[2-({[5-(2-methyl-1,3-thiazol-4-yl)thien-2-yl]sulfonyl}amino)ethyl]-1H-indol-3-yl}propyl)benzoic acid] | 400 nM
COc1ccc(S(=O)(=O)NCCc2c(CCOc3ccc(C(=O)O)cc3)c3cc(Cl)ccc3n2C(c2ccccc2)c2ccccc2)c2nonc12 [Example 175, 4-{2-[1-benzhydryl-5-chloro-2-(2-{[(7-methoxy-2,1,3-benzoxadiazol-4-yl)sulfonyl]amino}ethyl)-1H-indol-3-yl]ethoxy}benzoic acid] | 370 nM
N#Cc1ccccc1S(=O)(=O)NCCc1c(CCCc2ccc(C(=O)O)cc2)c2cc(Cl)ccc2n1C(c1ccccc1)c1ccccc1 [Example 155, 4-{3-[1-benzhydryl-5-chloro-2-(2-{[(2-cyanophenyl)sulfonyl]amino}ethyl)-1H-indol-3-yl]propyl}benzoic acid] | 450 nM
O=C(O)c1ccc(OCCc2c(CCNS(=O)(=O)Cc3cccc(C(F)(F)F)c3)n(C(c3ccccc3)c3ccccc3)c3ccc(Cl)cc23)cc1 [Example 12] | 150000 nM
O=C(O)c1ccc(OCCc2c(CCNS(=O)(=O)c3c(Cl)cccc3Cl)n(C(c3ccccc3)c3ccccc3)c3ccc(Cl)cc23)cc1 [Example 160, 4-{2-[1-benzhydryl-5-chloro-2-(2-{[(2,6-dichlorophenyl)sulfonyl]amino}ethyl)-1H-indol-3-yl]ethoxy}benzoic acid] | 190 nM
O=C(O)c1ccc(CCCc2c(CCNS(=O)(=O)c3cccc(-c4ccccc4)c3)n(C(c3ccccc3)c3ccccc3)c3ccc(Cl)cc23)cc1 [Example 206, 4-[3-(1-benzhydryl-2-{-2-[-(1,1′-biphenyl-3-ylsulfonyl)amino]ethyl}-5-chloro-1H-indol-3-yl)propyl]benzoic acid] | 500 nM
CS(=O)(=O)c1ccccc1S(=O)(=O)NCCc1c(CCCc2ccc(C(=O)O)cc2)c2cc(Cl)ccc2n1C(c1ccccc1)c1ccccc1 [Example 204, 4-(3-{1-Benzhydryl-5-chloro-2-[2({[2-(methylsulfonyl)phenyl]sulfonyl}amino)ethyl]-1H-indol-3-yl}propyl)benzoic acid] | 200 nM
O=C(O)c1ccc(OCCc2c(CCNS(=O)(=O)c3ccsc3)n(C(c3ccccc3)c3ccccc3)c3ccc(Cl)cc23)cc1 [Example 178, 4-[2-(1-benzhydryl-5-chloro-2-{2-[(thien-3-ylsulfonyl)amino]ethyl}-1H-indol-3-yl)ethoxy]benzoic acid] | 650 nM
O=C(O)c1ccc(OCCc2c(CCNS(=O)(=O)c3ccc(-c4ccc(F)cc4)cc3)n(C(c3ccccc3)c3ccccc3)c3ccc(Cl)cc23)cc1 [Example 217, 4-{2-[1-benzhydryl-5-chloro-2-(2-{[(4′-fluoro-1,1′-biphenyl-4-yl)sulfonyl]amino}ethyl)-1H-indol-3-yl]ethoxy}benzoic acid] | 2600 nM
O=C(O)c1ccc(OCCc2c(CCNS(=O)(=O)c3ccccc3C(F)(F)F)n(C(c3ccccc3)c3ccccc3)c3ccc(Cl)cc23)cc1 [Example 209, 4-[2-{1-Benzhydryl-5-chloro-2-[2-({[2-(trifluoromethyl)phenyl]sulfonyl}amino)ethyl]-1H-indol-3-yl}ethoxy)benzoic acid] | 350 nM
O=C(O)c1ccc(OCCc2c(CCNS(=O)(=O)c3cccc(OC(F)(F)F)c3)n(C(c3ccccc3)c3ccccc3)c3ccc(Cl)cc23)cc1 [Example 198, 4-(2-{1-Benzhydryl-5-chloro-2-[2-(3-trifluoromethoxy-benzenesulfonylamino)-ethyl]-1H-indol-3-yl}-ethoxy)-benzoic acid] | 700 nM
O=C(O)c1ccc(OCCc2c(CCNS(=O)(=O)c3ccccc3Br)n(C(c3ccccc3)c3ccccc3)c3ccc(Cl)cc23)cc1 [Example 165, 4-{2-[1-benzhydryl-2-(2-{[(2-bromophenyl)sulfonyl]amino}ethyl)-5-chloro-1H-indol-3-yl]ethoxy}benzoic acid] | 530 nM

Second part, the molecule after the results:

IC50 | Compound
800 nM | Cc1nc(S(=O)(=O)NCCc2c(CCOc3ccc(C(=O)O)cc3)c3cc(Cl)ccc3n2C(c2ccccc2)c2ccccc2)cn1C [Example 258, 4-{2-[1-benzhydryl-5-chloro-2-(2-{[(1,2-dimethyl-1H-imidazol-4-yl)sulfonyl]amino}ethyl)-1H-indol-3-yl]ethoxy}benzoic acid]
250 nM | O=C(O)c1ccc(CCCc2c(CCNS(=O)(=O)c3c(F)cccc3F)n(C(c3ccccc3)c3ccccc3)c3ccc(Cl)cc23)cc1 [Example 224]
240 nM | COc1cccc(OC)c1S(=O)(=O)NCCc1c(CCCc2ccc(C(=O)O)cc2)c2cc(Cl)ccc2n1C(c1ccccc1)c1ccccc1 [Example 275, 4-{3-[1-benzhydryl-5-chloro-2-(2-{[(2,6-dimethoxyphenyl)sulfonyl]amino}ethyl)-1H-indol-3-yl]propyl}benzoic acid]
500 nM | O=C(O)c1ccc(OCCc2c(CCNS(=O)(=O)c3ccccc3Cl)n(C(c3ccccc3)c3ccccc3)c3ccc(Cl)cc23)cc1 [Example 255, 4-{2-[1-benzhydryl-5-chloro-2-(2{[(2-chlorophenyl)sulfonyl]amino}ethyl)-1H-indol-3-yl]ethoxy}benzoic acid]
74 nM | Cc1cc(C)c(S(=O)(=O)NCCc2c(CCCc3ccc(C(=O)O)cc3)c3cc(Cl)ccc3n2C(c2ccccc2)c2ccccc2)c(C)c1 [Example 267, 4-(3-{1-Benzhydryl-5-chloro-2-[2-(2,4,6-trimethyl-benzenesulfonylamino)-ethyl]-1H-indol-3-yl}-propyl)-benzoic acid]
900 nM | CC1CCN(CCS(=O)(=O)NCCc2c(CCOc3ccc(C(=O)O)cc3)c3cc(Cl)ccc3n2C(c2ccccc2)c2ccccc2)CC1 [Example 245, 4-(2-{1-benzhydryl-5-chloro-2-[2-({[2-(4-methylpiperidin-1-yl)ethyl]sulfonyl}amino)ethyl]-1H-indol-3-yl}ethoxy)benzoic acid]
370 nM | O=C(O)c1ccc(OCCc2c(CCNS(=O)(=O)c3ccccc3[N+](=O)[O-])n(C(c3ccccc3)c3ccccc3)c3ccc(Cl)cc23)cc1 [Example 265, 4-{2-[1-benzhydryl-5-chloro-2-(2-{[(2-nitrophenyl)sulfonyl]amino}ethyl)-1H-indol-3-yl]ethoxy}benzoic acid]
140 nM | Cc1cccc(C)c1S(=O)(=O)NCCc1c(CCCc2ccc(C(=O)O)cc2)c2cc(Cl)ccc2n1C(c1ccccc1)c1ccccc1 [Example 270, 4-(3-[1-benzhydryl-5-chloro-2-(2-{[(2,6-dimethylphenyl)sulfonyl]amino}ethyl)-1H-indol-3-yl]propyl}benzoic acid]
900 nM | O=C(O)c1ccc(OCCc2c(CCNS(=O)(=O)C[S+]([O-])c3ccc(Cl)c(Cl)c3)n(C(c3ccccc3)c3ccccc3)c3ccc(Cl)cc23)cc1 (centres unmarked) [Example 289, 4-[2-(1-benzhydryl-5-chloro-2-{2-[({[(3,4-dichlorophenyl)sulfinyl]methyl}sulfonyl)amino]ethyl}-1H-indol-3-yl)ethoxy]benzoic acid]
90 nM | O=C(O)c1ccc(CCCc2c(CCNS(=O)(=O)c3c(F)cccc3C(F)(F)F)n(C(c3ccccc3)c3ccccc3)c3ccc(Cl)cc23)cc1 [Example 268, 4-(3-{1-benzhydryl-5-chloro-2-[2-({[2-fluoro-6-(trifluoromethyl)phenyl]sulfonyl}amino)ethyl]-1H-indol-3-yl}propyl)benzoic acid]
140 nM | O=C(O)c1ccc(CCCc2c(CCNS(=O)(=O)c3cccc(C(F)(F)F)c3)n(C(c3ccccc3)c3ccccc3)c3ccc(Cl)cc23)cc1 [Example 218, 4-(3-{1-Benzhydryl-5-chloro-2-[2-({[3-(trifluoromethyl)phenyl]sulfonyl}amino)ethyl]-1H-indol-3-yl}propyl)benzoic acid]
